# Results: patent publication US20230348424A1, “HETEROCYCLIC COMPOUNDS AND METHODS OF USE” (Schrödinger, Inc., priority 2022, published 2023)
# Tests used:
# [1] = molecular target: SOS1:KRAS (G12C) interaction (Homo sapiens (Human), UniProt Q07889); experiment: SOS1 KRas(G12C) FRET Assay; assay type: binding; details: 0.5 nM His10-SOS1 (res. 564-1049), 2.5 nM GST-KRAS G12C (res. 1-169), 2 hrs at RT
# Summary of the method: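 GST-KRAS G12C (res. 1-169) at 2.5 nM and His10-SOS1 (res. 564-1049) at 0.5 nM, final, in PBS with 0.1% BSA, 5 mM MgCl2, 100 mM KF, 5 mM DTT and 0.5% DMSO. After 2 h at RT, FRET read at 665/615 nm and normalized to DMSO and no-SOS1 controls. IC50 by non-linear regression.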
# [2] = molecular target: human SOS1 (Homo sapiens (Human), UniProt Q07889); experiment: Surface Plasmon Resonance (SPR) SOS1 Binding Assay; details: biotinylated SOS1 (res. 564-1049), Biacore 8K, 25° C., kinetic or steady state fit, 1:1 binding; read-out: hSOS1 KD
# Procedure: Binding to SOS1 was measured using a SPR assay with purified recombinant human SOS1 substrate (res. 564-1049 with N-terminal Avi tag; purified and biotinylated based on Hillig, et al., Proc Natl Acad Sci USA (2019); 116(7):2551-2560). SPR measurements were performed on a Biacore 8K SPR instrument (GE Healthcare, Sweden). Assays were performed at 25° C. using Series S SA sensor chips pre-coated with streptavidin (GE Healthcare, Cat. BR100531). Biotinylated SOS1 diluted in sample buffer (20 mM Tris HCI, 150 mM NaCl, 1 mM DTT, 0.05% TWEEN 20, 1 mM MgCh, pH 8.0) was captured to one flow cell of the chip to about 3,000 resonance units (RU) using sample buffer supplemented with 5% DMSO as a running buffer. Serial dilutions of the assayed compounds in the running buffer at 100, 50 or 0.5 µM were injected for 60 s at a flow rate of 30 µL/min and association phases were recorded. Dissociation of the samples was monitored for 600 s. Data processing was performed using Biacore Insight Software (Biacore, GE Healthcare). Sensorgrams recorded on a SA flow cell without captured protein were subtracted from sensorgrams recorded on the SOS1 surface. Blank injections of running buffer were used for double referencing and solvent correction was applied to all sample sensorgrams to correct for buffer mismatches. KDS were estimated using a kinetic or steady state, where applicable, fitting model describing a reversible equilibrium with 1:1 binding between SOS1 and the compound.
# Sequence of SOS1:KRAS (G12C) interaction (Q07889 564-1049, stated change not applied): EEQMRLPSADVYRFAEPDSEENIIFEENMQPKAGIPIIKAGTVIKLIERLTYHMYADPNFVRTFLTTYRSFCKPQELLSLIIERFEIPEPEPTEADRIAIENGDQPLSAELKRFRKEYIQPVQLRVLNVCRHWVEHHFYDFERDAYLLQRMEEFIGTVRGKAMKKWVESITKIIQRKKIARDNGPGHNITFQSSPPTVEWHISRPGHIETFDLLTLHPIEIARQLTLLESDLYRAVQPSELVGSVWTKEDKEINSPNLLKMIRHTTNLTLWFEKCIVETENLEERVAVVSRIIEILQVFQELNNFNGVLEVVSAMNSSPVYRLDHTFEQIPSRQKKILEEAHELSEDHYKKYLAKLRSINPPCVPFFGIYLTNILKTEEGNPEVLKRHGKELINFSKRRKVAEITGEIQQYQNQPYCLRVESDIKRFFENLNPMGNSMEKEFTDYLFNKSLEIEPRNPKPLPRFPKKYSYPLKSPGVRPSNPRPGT
# Sequence of human SOS1 (Q07889 564-1049): as the sequence (Q07889 564-1049, stated change not applied) above
Compound,IC50 [1],Kd [2]
"CO[C@@H]1CN(C)CC[C@H]1Nc1cc(=O)n(C2CCOCC2)cc1C(=O)N[C@H](C)c1cccc(C(F)(F)F)c1C (single isomer, unassigned) [Example 24]",40 nM,27 nM
"C[C@@H](NC(=O)c1cn(C2(C(F)F)CC2)c(=O)cc1N[C@H]1CCN(C)C[C@H]1F)c1cccc(C(F)F)c1F (single isomer, unassigned) [Example 64]",15 nM,9 nM
"C[C@@H](NC(=O)c1cn(C2(C(F)F)CC2)c(=O)cc1N[C@H]1CCNC[C@H]1F)c1cccc(C(F)F)c1F (single isomer, unassigned) [Example 70]",12.7 nM,4 nM
"C[C@@H](NC(=O)c1cn([C@H]2C[C@@H]2C2CC2)c(=O)cc1N[C@H]1[C@@H]2CN(C)C[C@@H]21)c1cccc(C(F)F)c1F (single isomer, unassigned) [Example 72]",9.7 nM,3 nM
"C[C@@H](NC(=O)c1cn([C@@H]2CC2(F)F)c(=O)cc1N[C@H]1[C@@H]2CN(C)C[C@@H]21)c1cccc(C(F)F)c1F (single isomer, unassigned) [Example 92]",16.1 nM,9 nM
"C[C@@H]1[C@@H](n2cc(C(=O)N[C@H](C)c3cccc(C(F)F)c3F)c(N[C@H]3[C@@H]4CN(C)C[C@@H]43)cc2=O)C1(F)F (single isomer, unassigned) [Example 109]",3.6 nM,2 nM
"C[C@@H](NC(=O)c1cn([C@H]2C[C@@H]2C(F)(F)F)c(=O)cc1N[C@H]1[C@@H]2CN(C)C[C@@H]21)c1cccc(C(F)F)c1F (single isomer, unassigned) [Example 111]",26.2 nM,17 nM
"C[C@@H](NC(=O)c1cn([C@@H]2C[C@H]2C(F)(F)F)c(=O)cc1N[C@H]1[C@@H]2CN(C)C[C@@H]21)c1cccc(C(F)F)c1F (single isomer, unassigned) [Example 112]",13.6 nM,6 nM
"C[C@@H](NC(=O)c1cn([C@H]2CC23CC3)c(=O)cc1N[C@H]1[C@@H]2CN(C)C[C@@H]21)c1cccc(C(F)F)c1F (single isomer, unassigned) [Example 115]",14.1 nM,6 nM
"C[C@@H](NC(=O)c1cn([C@@H]2CC23CC3)c(=O)cc1N[C@H]1[C@@H]2CN(C)C[C@@H]21)c1cccc(C(F)F)c1F (single isomer, unassigned) [Example 116]",26.7 nM,11 nM
"C[C@@H](NC(=O)c1cn([C@H]2CC23CCC3)c(=O)cc1N[C@H]1[C@@H]2CN(C)C[C@@H]21)c1cccc(C(F)F)c1F (single isomer, unassigned) [Example 117]",8.5 nM,6 nM
"C[C@@H](NC(=O)c1cn([C@@H]2CC23CCC3)c(=O)cc1N[C@H]1[C@@H]2CN(C)C[C@@H]21)c1cccc(C(F)F)c1F (single isomer, unassigned) [Example 118]",16.6 nM,11 nM
"C[C@@H](NC(=O)c1cn(C23CC(C2)C3)c(=O)cc1N[C@@H]1[C@@H]2CC[C@H]1CN(C)C2)c1cccc(C(F)F)c1F (single isomer, unassigned) [Example 134]",9 nM,5 nM
"C[C@@H](NC(=O)c1cn(C2(C(F)(F)F)CC2)c(=O)cc1N[C@@H]1[C@@H]2CC[C@H]1CN(C)C2)c1cccc(C(F)F)c1F (single isomer, unassigned) [Example 138]",19.7 nM,12 nM
"C[C@@H](NC(=O)c1cn([C@@H]2CCOC(C)(C)C2)c(=O)cc1N[C@H]1[C@@H]2CN(C)C[C@@H]21)c1cccc(C(F)F)c1F [Example 309, N-((R)-1-(3-(difluoromethyl)-2-fluorophenyl)ethyl)-1-((R)-2,2-dimethyltetrahydro-2H-pyran-4-yl)-4-(((1R,5S,6s)-3-methyl-3-azabicyclo[3.1.0]hexan-6-yl)amino)-6-oxo-1,6-dihydropyridine-3-carboxamide]",11.7 nM,
"CCC12CC(n3cc(C(=O)N[C@H](C)c4cccc(C(F)F)c4F)c(NC4[C@H]5CN(C)C[C@@H]45)cc3=O)(C1)C2 (stereo partly drawn) [Example 313, N-((R)-1-(3-(difluoromethyl)-2-fluorophenyl)ethyl)-1-(3-ethylbicyclo[1.1.1]pentan-1-yl)-4-(((1R,5S,6s)-3-methyl-3-azabicyclo[3.1.0]hexan-6-yl)amino)-6-oxo-1,6-dihydropyridine-3-carboxamide]",10.5 nM,

# Continued by falling IC50 [1], values first:
IC50 [1],Kd [2],Compound
71.3 nM,45 nM,"CO[C@H]1CN(C)CC[C@@H]1Nc1cc(=O)n(C2CCOCC2)cc1C(=O)N[C@H](C)c1cccc(C(F)(F)F)c1C (single isomer, unassigned) [Example 25]"
52.1 nM,31 nM,"C[C@@H](NC(=O)c1cn(C23CC(C2)C3)c(=O)cc1N[C@H]1[C@@H]2CC[C@H]1CN(C)C2)c1cccc(C(F)F)c1F (single isomer, unassigned) [Example 135]"
50.4 nM,48 nM,"C[C@@H](NC(=O)c1cn(C2(C(F)F)CC2)c(=O)cc1N[C@@H]1CCN(C)C[C@H]1F)c1cccc(C(F)F)c1F (single isomer, unassigned) [Example 65]"
49.7 nM,25 nM,"C[C@@H](NC(=O)c1cn(C2(C(F)(F)F)CC2)c(=O)cc1N[C@H]1[C@@H]2CC[C@H]1CN(C)C2)c1cccc(C(F)F)c1F (single isomer, unassigned) [Example 139]"
48.6 nM,34 nM,"C[C@@H](NC(=O)c1cn(C2(C(F)F)CC2)c(=O)cc1N[C@H]1CCN(C)C[C@@H]1F)c1cccc(C(F)F)c1F (single isomer, unassigned) [Example 66]"
45.4 nM,24 nM,"C[C@@H](NC(=O)c1cn([C@H]2CCC2(F)F)c(=O)cc1N[C@H]1[C@@H]2CN(C)C[C@@H]21)c1cccc(C(F)F)c1F (single isomer, unassigned) [Example 104]"
37.2 nM,,"C[C@@H](NC(=O)c1cn([C@H]2CCOC(C)(C)C2)c(=O)cc1N[C@H]1[C@@H]2CN(C)C[C@@H]21)c1cccc(C(F)F)c1F [Example 310, N-((R)-1-(3-(difluoromethyl)-2-fluorophenyl)ethyl)-1-((S)-2,2-dimethyltetrahydro-2H-pyran-4-yl)-4-(((1R,5S,6s)-3-methyl-3-azabicyclo[3.1.0]hexan-6-yl)amino)-6-oxo-1,6-dihydropyridine-3-carboxamide]"
31.4 nM,13 nM,"C[C@@H](NC(=O)c1cn(C2(C(F)F)CC2)c(=O)cc1N[C@@H]1C[C@@H]2CN(C)C[C@@H]2C1)c1cccc(C(F)F)c1F (single isomer, unassigned) [Example 124]"
25.6 nM,7 nM,"C[C@@H](NC(=O)c1cn([C@]2(C)CCOC2)c(=O)cc1NC1CCN(C)CC1)c1cccc(C(F)F)c1F (single isomer, unassigned) [Example 48]"
23.8 nM,12 nM,"C[C@@H](NC(=O)c1cn([C@H]2[C@H](C)C2(F)F)c(=O)cc1N[C@H]1[C@@H]2CN(C)C[C@@H]21)c1cccc(C(F)F)c1F (single isomer, unassigned) [Example 110]"
17.4 nM,13 nM,"C[C@@H](NC(=O)c1cn(C2(C(F)F)CC2)c(=O)cc1N[C@@H]1CCNC[C@@H]1F)c1cccc(C(F)F)c1F (single isomer, unassigned) [Example 69]"
15.2 nM,7 nM,"C[C@@H](NC(=O)c1cn(C2CC2)c(=O)cc1N[C@@H]1[C@@H]2CC[C@H]1CN(C)C2)c1cccc(C(F)F)c1F (single isomer, unassigned) [Example 140]"
13.4 nM,7 nM,"C[C@@H](NC(=O)c1cn([C@@H]2CC2(C)C)c(=O)cc1N[C@H]1[C@@H]2CN(C)C[C@@H]21)c1cccc(C(F)F)c1F (single isomer, unassigned) [Example 94]"
11.3 nM,7 nM,"C[C@@H](NC(=O)c1cn(C2(C(F)F)CC2)c(=O)cc1N[C@@H]1CCN(C)C[C@@H]1F)c1cccc(C(F)F)c1F (single isomer, unassigned) [Example 63]"
5.7 nM,3 nM,"C[C@@H](NC(=O)c1cn([C@@H]2CCC2(F)F)c(=O)cc1N[C@H]1[C@@H]2CN(C)C[C@@H]21)c1cccc(C(F)F)c1F (single isomer, unassigned) [Example 103]"
4.6 nM,2 nM,"C[C@@H](NC(=O)c1cn([C@@H]2C[C@H]2C2CC2)c(=O)cc1NC1CCN(C)CC1)c1cccc(C(F)F)c1F (single isomer, unassigned) [Example 74]"
4.5 nM,2 nM,"C[C@@H](NC(=O)c1cn([C@@]2(C)CCOC2)c(=O)cc1NC1CCN(C)CC1)c1cccc(C(F)F)c1F (single isomer, unassigned) [Example 47]"
